{"source": "patent US20090176996A1", "about": "“PROCESS FOR THE PREPARATION OF SULFAMIDE DERIVATIVES” (priority 2008, published 2009)"}
{"smiles": "NS(=O)(=O)NCc1ccccc1", "note": "(hydrate or solvate) [Example 5, Benzylsulfamide]", "values": [{"measurement": "melting point", "value": "102 to 104", "unit": "°C"}]}
